This is an account of results in ChEMBL document CHEMBL1201862, “PubChem BioAssay data set” (2004).

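All cell lines were grown in 96-well plates and treated with compound for 48 hours. The concentration for 50% growth inhibition is given as GI50.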 Calls of active or inactive are those of the source. No stated cut-off is given here; in the data, active = GI50 up to about 1.1 µM and inactive = higher.

Among the test systems are HCT-116; HOP-62; KM12; NCI-H522; SF-295; SF-268; TK-10; SR; CAKI-1; NCI-H460; LOX IMVI; Hs-578T; 786-0; HL-60; CCRF-CEM; SNB-19; HT-29; OVCAR-3; MDA-MB-435; COLO 205.
Experiment in all cases: inhibition of tumour cell growth, NCI panel, 48 h

In the case of `CCOP(=O)(OCC)C1CC(n2cc(C)c(=O)[nH]c2=O)OC1CO` (stereo not given), the GI50 was > 100 µM (inactive) with HCT-116; > 100 µM (inactive) in the assay with HOP-62; > 100 µM (inactive) with KM12; 83.8 µM (inactive) with NCI-H522; > 100 µM (inactive) in the assay on SF-295; > 100 µM (inactive) in the assay on SF-268. The GI50 in the assay on TK-10, in the assay on SR, in the assay on CAKI-1, with NCI-H460, in the assay with LOX IMVI and in the assay on Hs-578T was > 100 µM (inactive) in each case. Moreover, the GI50 in the assay on 786-0, in the assay with HL-60, in the assay on CCRF-CEM, with SNB-19, in the assay with HT-29 and with OVCAR-3 was > 100 µM (inactive) throughout.

`O=C1CCCC2=C1C(c1ccc3c(c1)OCO3)Nc1ccc3ccccc3c12` (stereo not given): the GI50 in the assay on HCT-116, with HOP-62, in the assay with KM12, in the assay with NCI-H522, with SF-295 and in the assay on SF-268 was > 100 µM (inactive) each time. Further, the GI50 in the assay on MDA-MB-435 is > 100 µM (inactive); with COLO 205, > 100 µM (inactive); in the assay on TK-10, > 100 µM (inactive); with CAKI-1, > 100 µM (inactive); with NCI-H460, > 100 µM (inactive); in the assay with Hs-578T it was 41.3 µM (inactive). Also, the GI50 in the assay with 786-0, with CCRF-CEM, in the assay with SNB-19, with HT-29 and in the assay on OVCAR-3 was > 100 µM (inactive) throughout.

In the case of `N=C(N)N/N=C/c1c(-c2ccc(Cl)cc2)nc2sc(Cl)cn12`, the GI50 is 0.43 µM (active) in the assay on HCT-116; 1.85 µM (inactive) in the assay on HOP-62; 1.03 µM (active) in the assay on KM12; 2.04 µM (inactive) in the assay with NCI-H522; 1.79 µM (inactive) with SF-295; 1.7 µM (inactive) in the assay with SF-268. The GI50 was 1.3 µM (inactive) in the assay on MDA-MB-435; 0.923 µM (active) in the assay on COLO 205; 1.72 µM (inactive) in the assay on TK-10; 1.5 µM (inactive) in the assay on CAKI-1; 1.69 µM (inactive) in the assay with NCI-H460; 0.169 µM (active) in the assay on LOX IMVI. Also, the GI50 in the assay on Hs-578T is 1.85 µM (inactive); in the assay on 786-0, 1.58 µM (inactive); in the assay on HL-60 it was 0.201 µM (active); in the assay on SNB-19, 1.86 µM (inactive); in the assay with HT-29, 0.646 µM (active); in the assay on OVCAR-3 it was 1.55 µM (inactive).

For `NCCN(CCN(C(=O)Nc1ccccc1)c1ccccc1)C(=O)Nc1ccccc1`, the GI50 with HCT-116 was 16.3 µM (inactive); with HOP-62, 16.7 µM (inactive); in the assay with NCI-H522 it was 19 µM (inactive); with SF-295, 18.5 µM (inactive); in the assay with SF-268, 18.6 µM (inactive); in the assay with COLO 205, 23 µM (inactive). Moreover, the GI50 is 24.5 µM (inactive) with TK-10; 27.6 µM (inactive) in the assay on SR; 17.4 µM (inactive) with NCI-H460; 19.4 µM (inactive) in the assay with LOX IMVI; 19.2 µM (inactive) in the assay on Hs-578T; 24.9 µM (inactive) in the assay with 786-0. For the same molecule, the GI50 in the assay with HL-60 was 18.9 µM (inactive); in the assay on CCRF-CEM it was 41.6 µM (inactive); in the assay on SNB-19, 28.6 µM (inactive); in the assay on HT-29, 28.5 µM (inactive).

In the case of `O=C1C[C@H](c2ccccc2)O[C@@H](c2ccccc2)C1`, the GI50 in the assay on HCT-116, in the assay with HOP-62, in the assay on KM12, in the assay with SF-295, with SF-268 and with MDA-MB-435 was > 100 µM (inactive) each time. Moreover, the GI50 was > 100 µM (inactive) with COLO 205; > 100 µM (inactive) in the assay on CAKI-1; > 100 µM (inactive) in the assay with NCI-H460; > 100 µM (inactive) with LOX IMVI; > 100 µM (inactive) with Hs-578T; 88.1 µM (inactive) in the assay with 786-0. The GI50 in the assay on CCRF-CEM, in the assay on SNB-19, in the assay on HT-29 and with OVCAR-3 was > 100 µM (inactive) throughout.

With `COC(=O)c1ccccc1C1CN=NC12Cc1cc(C)c(C)cc1C2=O` (stereo not given), the GI50 is 33.4 µM (inactive) in the assay with HCT-116; 78 µM (inactive) in the assay with HOP-62; 29.7 µM (inactive) in the assay on KM12; 14.3 µM (inactive) in the assay with NCI-H522; 37.5 µM (inactive) with SF-295; 28.9 µM (inactive) in the assay with SF-268. Also, the GI50 is 33.4 µM (inactive) in the assay on MDA-MB-435; 49.9 µM (inactive) in the assay on COLO 205; 25.8 µM (inactive) with TK-10; 61.2 µM (inactive) with CAKI-1; 44.1 µM (inactive) in the assay on NCI-H460; 20.4 µM (inactive) in the assay with LOX IMVI. Also, the GI50 with Hs-578T is 45.5 µM (inactive); in the assay with 786-0 it was 63.1 µM (inactive); in the assay on HL-60 it was 21.8 µM (inactive); in the assay with CCRF-CEM, 24.1 µM (inactive); in the assay with SNB-19, 54.8 µM (inactive); in the assay with HT-29 it was 29.4 µM (inactive). In addition, the GI50 in the assay with OVCAR-3 is 27.5 µM (inactive).

As for `N=C(N)Nc1ccc(CC(N)C(=O)NCC(=O)C(CC(=O)O)c2ncc(NC(=O)C(F)(F)F)o2)cc1` (stereo not given), the GI50 with HCT-116, in the assay on HOP-62, with KM12, with NCI-H522, with SF-295 and with SF-268 was > 25 µM (inactive) in each case. For the same molecule, the GI50 with MDA-MB-435, with COLO 205, with TK-10, in the assay on CAKI-1, in the assay with NCI-H460 and in the assay on LOX IMVI was > 25 µM (inactive) in each case. Further, the GI50 in the assay on Hs-578T, in the assay with 786-0, in the assay with HL-60, in the assay with CCRF-CEM, in the assay with HT-29 and in the assay on OVCAR-3 was > 25 µM (inactive) throughout.

For `Nc1nc(Nc2ccc(Cl)cc2)sc1C(=O)c1cc2ccccc2oc1=O`, the GI50 in the assay with HCT-116 was 23.1 µM (inactive); in the assay on HOP-62 it was 12.9 µM (inactive); in the assay on KM12, 35.2 µM (inactive); in the assay on SF-268, 18.3 µM (inactive); in the assay with MDA-MB-435, 23.7 µM (inactive); with COLO 205 it was 59.6 µM (inactive). For the same molecule, the GI50 with TK-10 was > 100 µM (inactive); in the assay on NCI-H460, 31 µM (inactive); in the assay with LOX IMVI, 23.8 µM (inactive); in the assay on Hs-578T it was 27.2 µM (inactive); in the assay with 786-0, 19.5 µM (inactive); in the assay with HL-60, 33 µM (inactive). Also, the GI50 in the assay with CCRF-CEM is 7.38 µM (inactive); with SNB-19, > 100 µM (inactive); with HT-29, 72.4 µM (inactive); with OVCAR-3, 4.84 µM (inactive).

In the case of `COc1cc2nc(-c3cccs3)nc(N3C(c4ccc(O)cc4)=NNC(=O)c4ccccc43)c2cc1OC`, the GI50 with HCT-116 was 32.4 µM (inactive); with HOP-62 it was 56.5 µM (inactive); in the assay on KM12, 32.7 µM (inactive); in the assay with NCI-H522, 86.9 µM (inactive); with SF-295 it was 19.5 µM (inactive); with SF-268 it was 28.7 µM (inactive). The GI50 in the assay with MDA-MB-435 was 26.2 µM (inactive); in the assay on COLO 205, 20.8 µM (inactive); with TK-10, 30.5 µM (inactive); with CAKI-1, 22.2 µM (inactive); with NCI-H460 it was 26.5 µM (inactive); in the assay with LOX IMVI, 22.3 µM (inactive). Besides, the GI50 in the assay on Hs-578T was 42.9 µM (inactive); in the assay on 786-0, 52.8 µM (inactive); in the assay with CCRF-CEM it was 4.99 µM (inactive); with SNB-19, 35.6 µM (inactive); in the assay on HT-29 it was 23.1 µM (inactive).

Turning to `Clc1ccc(-c2nc3ccc4ccccc4c3c3c2CCCC3)cc1`, the GI50 in the assay on HCT-116 was 50.5 µM (inactive); in the assay on HOP-62, > 100 µM (inactive); with KM12, > 100 µM (inactive); with NCI-H522, > 100 µM (inactive); in the assay on SF-295 it was > 100 µM (inactive); in the assay with SF-268, > 100 µM (inactive). Besides, the GI50 was > 100 µM (inactive) in the assay with MDA-MB-435; > 100 µM (inactive) in the assay with COLO 205; > 100 µM (inactive) in the assay with TK-10; > 100 µM (inactive) with CAKI-1; 97.3 µM (inactive) in the assay with NCI-H460; > 100 µM (inactive) with Hs-578T. The GI50 with 786-0 was 75.2 µM (inactive); in the assay with CCRF-CEM, 68.4 µM (inactive); in the assay on SNB-19, > 100 µM (inactive); in the assay on HT-29, 44.6 µM (inactive); with OVCAR-3 it was > 100 µM (inactive).

As for `CC1(C)OCC(C2CCC3(C)C4=CCC5C(C)(C)C(O)CCC5(C)C4CCC23C)CC(O)C1O` (stereo not given), the GI50 was 13.2 µM (inactive) in the assay with HCT-116; 14.5 µM (inactive) with KM12; 20 µM (inactive) in the assay with NCI-H522; 16.9 µM (inactive) in the assay with SF-295; 18.3 µM (inactive) with SF-268; 16.4 µM (inactive) in the assay on MDA-MB-435. Besides, the GI50 in the assay with COLO 205 is 22.5 µM (inactive); with TK-10 it was 13.6 µM (inactive); in the assay on CAKI-1 it was 14 µM (inactive); with NCI-H460, 17 µM (inactive); in the assay on LOX IMVI, 17.1 µM (inactive); in the assay with Hs-578T, 19.9 µM (inactive). Further, the GI50 in the assay on 786-0 was 13.4 µM (inactive); with HL-60, 12.3 µM (inactive); with CCRF-CEM it was 25.8 µM (inactive); in the assay with SNB-19 it was 14.8 µM (inactive); in the assay with HT-29, 18.2 µM (inactive); with OVCAR-3 it was 14.6 µM (inactive).
